Data as given in PubChem BioAssay (NCI).
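Method: 48-hour compound exposure of cells in 96-well plates, five concentrations, linear interpolation of endpoints. TGI is the concentration that stops growth completely.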

Key:
Test in all cases: NCI-60 cell line screen, 48 h
[1] = tested on: HT29 colon
[2] = tested on: ACHN renal
[3] = tested on: CCRF-CEM leukemia
[4] = tested on: NCI/ADR-RES ovarian
[5] = tested on: SR leukemia
[6] = tested on: PC-3 prostate
[7] = tested on: MDA-MB-435
[8] = tested on: SNB-75 CNS
[9] = tested on: SK-MEL-28 melanoma
[10] = tested on: SNB-19 CNS
[11] = tested on: A549 NSCLC
[12] = tested on: HCT-15 colon
[13] = tested on: HCC-2998 colon
[14] = tested on: RXF 393 renal
[15] = tested on: TK-10 renal
[16] = tested on: EKVX NSCLC
[17] = tested on: M14 melanoma
[18] = tested on: K-562 leukemia
[19] = tested on: SK-MEL-5 melanoma
[20] = tested on: U251 CNS
[21] = tested on: UACC-62 melanoma
[22] = tested on: UO-31 renal
[23] = tested on: LOX IMVI melanoma
[24] = tested on: NCI-H460 lung
[25] = tested on: NCI-H522 lung
[26] = tested on: HS 578T breast
[27] = tested on: MALME-3M melanoma
[28] = tested on: SF-295 CNS
[29] = tested on: OVCAR-5 ovarian
[30] = tested on: SK-MEL-2 melanoma
[31] = tested on: HOP-62 NSCLC
[32] = tested on: MDA-MB-231 breast
[33] = tested on: KM12 colon
[34] = tested on: BT-549 breast
[35] = tested on: HOP-92 NSCLC
[36] = tested on: MDA-N
[37] = tested on: SN12C renal
[38] = tested on: 786-0 renal
[39] = tested on: NCI-H23 lung
[40] = tested on: SW-620 colon
[41] = tested on: A498 renal
[42] = tested on: DU-145 prostate
[43] = tested on: UACC-257 melanoma
[44] = tested on: OVCAR-8 ovarian
[45] = tested on: T-47D breast
[46] = tested on: NCI-H226 lung
[47] = tested on: OVCAR-3 ovarian
[48] = tested on: COLO 205 colon
[49] = tested on: HCT-116 colon
[50] = tested on: MOLT-4 leukemia
[51] = tested on: RPMI-8226 leukemia
[52] = tested on: MCF7 breast
[53] = tested on: IGROV1 ovarian
[54] = tested on: SF-539 CNS
[55] = tested on: CAKI-1 renal
[56] = tested on: SF-268 CNS
[57] = tested on: SK-OV-3 ovarian
[58] = tested on: OVCAR-4 ovarian
[59] = tested on: HL-60(TB) leukemia

c1ccc(CCN(Cc2nc3ccccc3[nH]2)Cc2nc3ccccc3[nH]2)cc1
TGI [1]: > 63.5 µM | TGI [2]: 22.4 µM | TGI [3]: > 100 µM | TGI [4]: 18.1 µM | TGI [5]: 35.3 µM | TGI [6]: 36.7 µM | TGI [7]: 29.8 µM | TGI [8]: 36.7 µM | TGI [9]: 30.4 µM | TGI [10]: > 31.6 µM | TGI [11]: 44.8 µM | TGI [12]: 22.1 µM | TGI [13]: 33.6 µM | TGI [14]: 28.9 µM | TGI [15]: 35.7 µM | TGI [16]: > 77.8 µM | TGI [17]: 26.7 µM | TGI [18]: 12.9 µM | TGI [19]: 16.3 µM | TGI [20]: 19.8 µM | TGI [21]: 28.3 µM | TGI [22]: 26.2 µM | TGI [23]: 23.1 µM | TGI [24]: 28.3 µM | TGI [25]: 49.4 µM | TGI [26]: 43.4 µM | TGI [27]: 45.7 µM | TGI [28]: 35.4 µM | TGI [29]: 71.6 µM | TGI [30]: 36.6 µM | TGI [31]: 24.9 µM | TGI [32]: 31.8 µM | TGI [33]: 27.3 µM | TGI [34]: 27.2 µM | TGI [35]: 30.7 µM | TGI [36]: 36.3 µM | TGI [37]: 30.8 µM | TGI [38]: 31.7 µM | TGI [39]: 37.9 µM | TGI [40]: 26 µM | TGI [41]: 30.6 µM | TGI [42]: 31.7 µM | TGI [43]: 32.5 µM | TGI [44]: 18.6 µM | TGI [45]: 40.8 µM | TGI [46]: > 68.5 µM | TGI [47]: 48.5 µM | TGI [48]: 31.2 µM | TGI [49]: 17 µM | TGI [50]: 39.3 µM | TGI [51]: 11.6 µM | TGI [52]: 35.1 µM | TGI [53]: 17.8 µM | TGI [54]: 38.9 µM | TGI [55]: 12.5 µM | TGI [56]: 33.6 µM | TGI [57]: 70 µM | TGI [58]: 68.9 µM | TGI [59]: 7.8 µM

[N-]=[N+]=Nc1ccc2c(c1)Sc1ccccc1N2CCCCCl
TGI [1]: > 100 µM | TGI [2]: > 100 µM | TGI [3]: > 100 µM | TGI [4]: > 100 µM | TGI [5]: > 100 µM | TGI [6]: > 100 µM | TGI [7]: > 100 µM | TGI [8]: > 100 µM | TGI [9]: > 100 µM | TGI [10]: > 100 µM | TGI [11]: > 100 µM | TGI [12]: > 100 µM | TGI [13]: > 100 µM | TGI [14]: > 100 µM | TGI [15]: > 100 µM | TGI [16]: > 100 µM | TGI [17]: > 100 µM | TGI [18]: > 100 µM | TGI [19]: 59.8 µM | TGI [20]: > 100 µM | TGI [21]: > 100 µM | TGI [22]: > 100 µM | TGI [23]: > 100 µM | TGI [24]: > 100 µM | TGI [25]: > 100 µM | TGI [26]: > 100 µM | TGI [27]: > 100 µM | TGI [28]: > 100 µM | TGI [29]: > 100 µM | TGI [30]: 76.9 µM | TGI [31]: > 100 µM | TGI [32]: > 100 µM | TGI [33]: > 100 µM | TGI [34]: > 100 µM | TGI [35]: > 100 µM | TGI [36]: > 100 µM | TGI [37]: > 100 µM | TGI [38]: > 100 µM | TGI [39]: > 100 µM | TGI [40]: > 100 µM | TGI [41]: > 100 µM | TGI [42]: > 100 µM | TGI [43]: > 100 µM | TGI [44]: > 100 µM | TGI [45]: > 100 µM | TGI [46]: > 100 µM | TGI [47]: > 100 µM | TGI [48]: 82.3 µM | TGI [49]: > 100 µM | TGI [50]: > 100 µM | TGI [51]: > 100 µM | TGI [52]: > 100 µM | TGI [53]: > 100 µM | TGI [54]: > 100 µM | TGI [55]: > 100 µM | TGI [56]: > 100 µM | TGI [57]: > 100 µM | TGI [58]: > 100 µM | TGI [59]: 64.3 µM

C=C1C(=O)OC2CC3(CO3)C3C(O)C(O)CC3(C)CC12 (stereo unspecified)
TGI [1]: > 100 µM | TGI [2]: 35.5 µM | TGI [3]: 45.9 µM | TGI [4]: > 100 µM | TGI [5]: 87.4 µM | TGI [6]: > 100 µM | TGI [7]: 83.1 µM | TGI [8]: > 100 µM | TGI [9]: 34.8 µM | TGI [10]: > 100 µM | TGI [11]: > 100 µM | TGI [12]: 34.1 µM | TGI [13]: 33.9 µM | TGI [14]: 31.9 µM | TGI [15]: > 100 µM | TGI [16]: 37.2 µM | TGI [17]: 36.7 µM | TGI [18]: > 100 µM | TGI [19]: 42 µM | TGI [20]: > 100 µM | TGI [21]: 38 µM | TGI [23]: 23.5 µM | TGI [24]: > 100 µM | TGI [25]: 27.9 µM | TGI [26]: > 100 µM | TGI [27]: 37.5 µM | TGI [28]: > 100 µM | TGI [29]: 71.7 µM | TGI [30]: 38.4 µM | TGI [31]: > 100 µM | TGI [32]: 60.5 µM | TGI [33]: > 100 µM | TGI [34]: 33.9 µM | TGI [35]: 50.7 µM | TGI [36]: 81.6 µM | TGI [37]: 68.1 µM | TGI [38]: > 100 µM | TGI [39]: 47.9 µM | TGI [40]: 32.3 µM | TGI [41]: 64.2 µM | TGI [42]: > 100 µM | TGI [43]: > 100 µM | TGI [44]: 45.3 µM | TGI [45]: > 100 µM | TGI [46]: > 100 µM | TGI [47]: 55.6 µM | TGI [48]: 81.2 µM | TGI [49]: 38 µM | TGI [50]: 46.7 µM | TGI [51]: > 100 µM | TGI [52]: 62.1 µM | TGI [53]: > 100 µM | TGI [54]: 39.2 µM | TGI [55]: 36.6 µM | TGI [56]: > 100 µM | TGI [57]: > 100 µM | TGI [58]: > 100 µM | TGI [59]: 44.6 µM
